Source: US10993957B2 (NuCana plc, priority 2011, dated 2021)
Like-named read-outs stand apart in the source and are kept apart here.

Tests used:
L1210/0 = assay: Cytostatic assay, L1210/0 cells; format: cell-based, murine; settings: for IC50: read-out: IC50 L1210/0
From the text: (§1) The cell lines employed were L1210/0 (a leukemia cell line), FM3A/0 (a breast cancer cell line), Cem/0 (an acute lymphoblastic leukemia cell line) and HeLa (a cervical cell line).

Cem/0 = assay: Cytostatic assay, CEM/0 cells; format: cell-based, human; settings: for CC50: Table 1, read-out: CC50 Cem/0; for IC50: Table 6, read-out: IC50 Cem/0
From the text: as §1

Cem/TK^− = assay: Cytostatic assay, thymidine kinase-deficient CEM/TK^− cells; format: cell-based, human; settings: for CC50: Table 1, read-out: CC50 Cem/TK^−; for IC50: Table 6, read-out: IC50 Cem/TK^−
HeLa = assay: Cytostatic assay, HeLa cells; format: cell-based; settings: for CC50: Table 1, read-out: CC50 HeLa; for IC50: Table 6, read-out: IC50 HeLa
From the text: as §1

L1210/TK^− = assay: Cytostatic assay, thymidine kinase-deficient L1210/TK^− cells; format: cell-based, murine; settings: for CC50: L1210, Table 1, read-out: CC50 L1210/TK^−; for IC50: Table 6, read-out: IC50 L1210/TK^−
L1210.Hyor = assay: Cytostatic assay, Mycoplasma hyorhinis-infected L1210 cells; settings: for % Retention: CC50 L1210 × 100 ÷ CC50 L1210/Hyor
From the text: Murine leukaemia L1210/0 and human T-lymphocyte CEM/0 cells were obtained from the American Type Culture Collection (ATCC) (Rockville, Md.). Human glioblastoma U87 cells were kindly provided by Dr. E. Menue (Institut Pasteur, Paris, France). […] S. Eriksson (currently at Uppsala University, Uppsala, Sweden) and Prof A. Karlsson (Karolinska Institute, Stockholm, Sweden). […] All cells were maintained in Dulbecco's modified Eagle's medium (DMEM) (Invitrogen, Carlsbad, Calif.) with 10% foetal bovine serum (FBS) (Biochrom AG, Berlin, Germany), 10 mM Hepes and 1 mM Sodium Pyruvate (Invitrogen). Cells were grown at 37° C. in a humidified incubator with a gas phase of 5% CO2.
Monolayer cells (U87 and U87.Hyor) were seeded in 48-well microtiter plates (Nunc™, Roskilde, Denmark) at 10,000 cells/well. After 24 hours, an equal volume of fresh medium containing the test compounds was added. On day 5, cells were trypsinized and counted in a Coulter counter (Analis, Suarlée, Belgium). Suspension cells (L1210/0, L1210/TK^−, L1210.Hyor, CEM/0, CEM/TK^−) were seeded in 96-well microtiter plates (Nunc™) at 60,000 cells/well in the presence of a given amount of the test compounds. The cells were allowed to proliferate for 48 h (L1210) or 72 hours (CEM) and were then counted in a Coulter counter.
Samples were also assayed for their % retention of activity in mycoplasma infected cells.
The L1210/0 cell cultures were infected with the mycoplasma species M. hyorhinis (cells designated: L1210.Hyor).

HeLa/TK^− = assay: Cytostatic assay, HeLa/TK^− cells; format: cell-based; settings: for CC50: Table 1, read-out: CC50 HeLa/TK^−; for IC50: Table 6, read-out: IC50 HeLa/TK^−
From the text: as §1

[1] = Mus musculus, L1210/0, Table 1, read-out: CC50 L1210/0
[2] = Mus musculus, L1210/0, Table 2, mycoplasma negative cells, read-out: CC50 L1210
[3] = Mus musculus, L1210, read-out: CC50 L1210/Hyor
[4] = Mus musculus, L1210, read-out: IC50 L1210.Hyor
[5] = read-out: IC50 L1210.Hyor, Table 7

With `O=C(OCc1ccccc1)[C@H](Cc1ccccc1)NP(=O)(OC[C@H]1O[C@@H](n2cc(F)c(=O)[nH]c2=O)CC1O)Oc1cccc2ccccc12` (stereo partly drawn) [CPF 587, 5-Fluoro-2′-deoxyuridine-5′-O-[1-naphthyl-(benzoxy-L-phenylalaninyl)]phosphate] the CC50 (L1210/0; [1]) was 12 ± 7 nM, the CC50 (L1210/0; [2]) was 22 nM and the IC50 (L1210/0; Mus musculus, L1210/0, Table 6) was 12 ± 7 nM. For the same compound, the IC50 (L1210/0; Mus musculus, L1210/0, Table 7) was 21 ± 6.1 nM, the CC50 (Cem/0; Homo sapiens, CCRF-CEM) was 100 ± 30 nM and the IC50 (Cem/0; Homo sapiens, CCRF-CEM) was 100 ± 30 nM. The CC50 (Cem/TK^−; Homo sapiens, CEM-TK(-)) was 7.2 ± 0.1 µM, the IC50 (Cem/TK^−; Homo sapiens, CEM-TK(-)) was 7.2 ± 0.1 µM and the CC50 (HeLa; Homo sapiens, HeLa) was 160 ± 80 nM. It also gave an IC50 (HeLa; Homo sapiens, HeLa) of 160 ± 80 nM, a CC50 (L1210/TK^−; Mus musculus) of 5600 ± 1300 nM and an IC50 (L1210/TK^−; Mus musculus, L1210) of 5600 ± 1300 nM. For the same compound, the “% Retention” value (L1210.Hyor) was 0.5%, the CC50 (L1210.Hyor; [3]) was 4200 nM and the IC50 (L1210.Hyor; [4]) was 230 ± 78 nM. For the same compound, the “IC50(L1210.Hyor)/IC50(L1210/0)” value (L1210.Hyor; Table 7) was 11, the CC50 (HeLa/TK^−; Homo sapiens, HeLa) was 6.8 ± 1.5 µM and the IC50 (HeLa/TK^−; Homo sapiens, HeLa) was 6.8 ± 1.5 µM.

`C[C@H](NP(=O)(OC[C@H]1O[C@@H](n2cc(F)c(=O)[nH]c2=O)CC1O)Oc1cccc2ccccc12)C(=O)OCC(C)(C)C` (stereo partly drawn) [CPF 588, 5-Fluoro-2′-deoxyuridine-5′-O-[1-naphthyl-(2,2-dimethylpropoxy-L-alaninyl)] phosphate] gave a CC50 (L1210/0; [1]) of 270 ± 110 nM, a CC50 (L1210/0; [2]) of 237 nM and an IC50 (L1210/0; Mus musculus, L1210/0, Table 6) of 270 ± 110 nM. The IC50 (L1210/0; Mus musculus, L1210/0, Table 7) was 93 ± 33 nM, the CC50 (Cem/0; Homo sapiens, CCRF-CEM) was 490 ± 50 nM and the IC50 (Cem/0; Homo sapiens, CCRF-CEM) was 490 ± 50 nM. For the same compound, the CC50 (Cem/TK^−; Homo sapiens, CEM-TK(-)) was 6.7 ± 1 µM, the IC50 (Cem/TK^−; Homo sapiens, CEM-TK(-)) was 6.7 ± 1 µM and the CC50 (HeLa; Homo sapiens, HeLa) was 700 ± 110 nM. The IC50 (HeLa; Homo sapiens, HeLa) was 700 ± 110 nM, the CC50 (L1210/TK^−; Mus musculus) was 1200 ± 700 nM and the IC50 (L1210/TK^−; Mus musculus, L1210) was 1200 ± 700 nM. For the same compound, the “% Retention” value (L1210.Hyor) was 61%, the CC50 (L1210.Hyor; [3]) was 390 nM and the IC50 (L1210.Hyor; [4]) was 180 ± 69 nM. The “IC50(L1210.Hyor)/IC50(L1210/0)” value (L1210.Hyor; Table 7) was 1.9, the CC50 (HeLa/TK^−; Homo sapiens, HeLa) was 32 ± 26 µM and the IC50 (HeLa/TK^−; Homo sapiens, HeLa) was 32 ± 26 µM.

With `C[C@H](NP(=O)(OC[C@H]1O[C@@H](n2cc(F)c(=O)[nH]c2=O)CC1O)Oc1cccc2ccccc12)C(=O)OCC1CC1` (stereo partly drawn) [CPF 579, 5-Fluoro-2′-deoxyuridine-5′-O-[1-naphthyl-(cyclopropylmethanoxy-L-alaninyl)] phosphate] the CC50 (L1210/0; [1]) was 17 ± 7 nM, the CC50 (L1210/0; [2]) was 19 nM and the IC50 (L1210/0; Mus musculus, L1210/0, Table 6) was 17 ± 7 nM. The IC50 (L1210/0; Mus musculus, L1210/0, Table 7) was 14 ± 4.2 nM, the CC50 (Cem/0; Homo sapiens, CCRF-CEM) was 59 ± 17 nM and the IC50 (Cem/0; Homo sapiens, CCRF-CEM) was 59 ± 17 nM. It also gave a CC50 (Cem/TK^−; Homo sapiens, CEM-TK(-)) of 1.1 ± 0.2 µM, an IC50 (Cem/TK^−; Homo sapiens, CEM-TK(-)) of 1.1 ± 0.2 µM and a CC50 (HeLa; Homo sapiens, HeLa) of 68 ± 1 nM. The IC50 (HeLa; Homo sapiens, HeLa) was 68 ± 1 nM, the CC50 (L1210/TK^−; Mus musculus) was 120 ± 60 nM and the IC50 (L1210/TK^−; Mus musculus, L1210) was 120 ± 60 nM. The “% Retention” value (L1210.Hyor) was 42%, the CC50 (L1210.Hyor; [3]) was 45 nM and the IC50 (L1210.Hyor; [4]) was 31 ± 6.4 nM. For the same compound, the “IC50(L1210.Hyor)/IC50(L1210/0)” value (L1210.Hyor; Table 7) was 2.2, the CC50 (HeLa/TK^−; Homo sapiens, HeLa) was 1.4 ± 0.4 µM and the IC50 (HeLa/TK^−; Homo sapiens, HeLa) was 1.4 ± 0.4 µM.

With `C[C@H](NP(=O)(OC[C@H]1O[C@@H](n2cc(F)c(=O)[nH]c2=O)CC1O)Oc1cccc2ccccc12)C(=O)OC1Cc2ccccc2C1` (stereo partly drawn) [CPF597, 5-Fluoro-2′-deoxyuridine-5′-O-[1-naphthyl-(2-indanoxy-L-alaninyl)]phosphate] the IC50 (L1210/0; Mus musculus, L1210/0, Table 6) was 21 ± 2 nM, the IC50 (L1210/0; Mus musculus, L1210/0, Table 7) was 39 ± 19 nM and the IC50 (Cem/0; Homo sapiens, CCRF-CEM) was 79 ± 18 nM. For the same compound, the IC50 (Cem/TK^−; Homo sapiens, CEM-TK(-)) was 1 ± 0.2 µM, the IC50 (HeLa; Homo sapiens, HeLa) was 100 ± 60 nM and the IC50 (L1210/TK^−; Mus musculus, L1210) was 40000 nM. The IC50 (L1210.Hyor; [4]) was 42 ± 40 nM, the “IC50(L1210.Hyor)/IC50(L1210/0)” value (L1210.Hyor; Table 7) was 1.08 and the IC50 (HeLa/TK^−; Homo sapiens, HeLa) was 7.1 ± 2.1 µM.

Work on `C[C@H](NP(=O)(OC[C@H]1O[C@@H](n2cc(F)c(=O)[nH]c2=O)CC1O)Oc1cccc2ccccc12)C(=O)OC1CCCC1` (stereo partly drawn) [CPF 582, 5-Fluoro-2′-deoxyuridine-5′-O-[1-naphthyl-(cyclopentoxy-L-alaninyl)]phosphate] yielded a CC50 (L1210/0; [1]) of 31 ± 10 nM, a CC50 (L1210/0; [2]) of 35 nM and an IC50 (L1210/0; Mus musculus, L1210/0, Table 6) of 31 ± 10 nM. The IC50 (L1210/0; Mus musculus, L1210/0, Table 7) was 16 ± 0.7 nM, the CC50 (Cem/0; Homo sapiens, CCRF-CEM) was 35 ± 25 nM and the IC50 (Cem/0; Homo sapiens, CCRF-CEM) was 350 ± 25 nM. The CC50 (Cem/TK^−; Homo sapiens, CEM-TK(-)) was 0.92 ± 0.007 µM, the IC50 (Cem/TK^−; Homo sapiens, CEM-TK(-)) was 0.92 ± 0.007 µM and the CC50 (HeLa; Homo sapiens, HeLa) was 71 ± 36 nM. The IC50 (HeLa; Homo sapiens, HeLa) was 71 ± 36 nM, the CC50 (L1210/TK^−; Mus musculus) was 130 ± 20 nM and the IC50 (L1210/TK^−; Mus musculus, L1210) was 130 ± 20 nM. The “% Retention” value (L1210.Hyor) was 83%, the CC50 (L1210.Hyor; [3]) was 42 nM and the IC50 (L1210.Hyor; [4]) was 24 ± 5 nM. The “IC50(L1210.Hyor)/IC50(L1210/0)” value (L1210.Hyor; Table 7) was 1.5, the CC50 (HeLa/TK^−; Homo sapiens, HeLa) was 2.2 ± 1.3 µM and the IC50 (HeLa/TK^−; Homo sapiens, HeLa) was 2.2 ± 1.3 µM.

In the case of `CC(C)C(NP(=O)(OCC1OC(n2cc(F)c(=O)[nH]c2=O)CC1O)Oc1cccc2ccccc12)C(=O)OC1CCCCC1` (stereo not drawn) [CPF 576], the CC50 (L1210/0; Table 2, mycoplasma negative cells, read-out: CC50 L1210) is reported as 1400 nM, the IC50 (L1210/0; Table 6) is reported as 1100 ± 500 nM and the IC50 (L1210/0; Table 7) is reported as 1200 ± 170 nM. It also gave an IC50 (Cem/0) of 800 ± 280 nM, an IC50 (Cem/TK^−) of 46 ± 14 µM and an IC50 (HeLa) of 670 ± 30 nM. The IC50 (L1210/TK^−) was 35000 ± 8000 nM, the “% Retention” value (L1210.Hyor) was 51% and the “IC50(L1210.Hyor)/IC50(L1210/0)” value (L1210.Hyor; Table 7) was 1.08. The CC50 (L1210.Hyor; read-out: CC50 L1210/Hyor, Table 2, mycoplasma positive cells) was 2730 nM, the IC50 (L1210.Hyor; [5]) was 1290 ± 290 nM and the IC50 (HeLa/TK^−) was 27 ± 6 µM.

`CCCCCOC(=O)C(Cc1ccccc1)NP(=O)(OCC1OC(n2cc(F)c(=O)[nH]c2=O)CC1O)Oc1cccc2ccccc12` (mixture of isomers) [Nap Pnt Phe] showed an IC50 (L1210/0; Table 6) of 26 ± 1 nM, an IC50 (L1210/0; Table 7) of 30 ± 3.9 nM and an IC50 (Cem/0) of 100 nM. It also gave an IC50 (Cem/TK^−) of 8.3 ± 1 µM, an IC50 (HeLa) of 40 nM and an IC50 (L1210/TK^−) of 2900 ± 1200 nM. For the same compound, the “IC50(L1210.Hyor)/IC50(L1210/0)” value (L1210.Hyor; Table 7) was 4.67, the IC50 (L1210.Hyor; [5]) was 140 ± 7 nM and the IC50 (HeLa/TK^−) was 6.6 ± 0.5 µM.
